Measured values published in publication PMC12948245, “Fluorinated Carnitine Derivatives as Tools to Visualise Carnitine Transport and Metabolism” (Advanced Science, 2025).

Experiments:
OCTN2 [1] = biological target: T1, OCTN2 (Homo sapiens, UniProt O76082); test: inhibition of […]FMC uptake in H460 cells by co-incubation; assay type: cell-based; settings: HBSS, 37 °C, 60 min; inhibitor concentration of this test not given
T1 construct: gene SLC22A5; endogenous full-length transporter in intact H460 cells; identity supported by OCTN2 siRNA knockdown (siRNA L-007456-00-0005)
T1 sequence (O76082 1-557): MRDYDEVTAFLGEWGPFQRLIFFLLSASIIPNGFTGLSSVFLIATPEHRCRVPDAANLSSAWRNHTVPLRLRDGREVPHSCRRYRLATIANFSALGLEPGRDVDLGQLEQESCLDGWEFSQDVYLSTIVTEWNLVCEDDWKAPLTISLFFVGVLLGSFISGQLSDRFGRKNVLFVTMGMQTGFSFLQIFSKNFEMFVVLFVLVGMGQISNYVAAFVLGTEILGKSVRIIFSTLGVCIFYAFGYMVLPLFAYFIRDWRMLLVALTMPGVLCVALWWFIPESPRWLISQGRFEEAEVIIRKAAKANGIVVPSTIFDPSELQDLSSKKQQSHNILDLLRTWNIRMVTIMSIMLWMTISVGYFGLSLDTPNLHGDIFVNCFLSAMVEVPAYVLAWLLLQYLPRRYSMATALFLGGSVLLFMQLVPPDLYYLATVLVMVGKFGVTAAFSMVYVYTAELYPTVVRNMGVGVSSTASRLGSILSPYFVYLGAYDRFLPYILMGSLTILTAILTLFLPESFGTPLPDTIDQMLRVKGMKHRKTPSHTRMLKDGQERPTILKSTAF

OCTN2 [2] = biological target: T1, OCTN2; test: competitive inhibition of […]FMC uptake in H460 cells, gamma counting; assay type: cell-based; settings: HBSS, 37 °C, 60 min; [18F]FMC as tracer; endogenous transporter; n = 3

| % reduction of [18F]FMC uptake (OCTN2 [1]) | IC50 (OCTN2 [2]) | Structure (SMILES) |
| --- | --- | --- |
| 78.1 ± 10.2% |  | C[N+](C)(C)NCCC(=O)[O-] [meldonium] |
|  | 4.8 ± 1.6 µM | C[N+](C)(C)C[C@H](O)CC(=O)O [ʟ-carnitine] |
